In series [1] the target is T1, cloned 5-HT1A receptors stably expressed in transfected HeLa cells (HA7) (Homo sapiens, UniProt P08908).
T1 construct: expressed in transfected cells; host or cells: HeLa cells (HA7)
T1 sequence (P08908 1-422): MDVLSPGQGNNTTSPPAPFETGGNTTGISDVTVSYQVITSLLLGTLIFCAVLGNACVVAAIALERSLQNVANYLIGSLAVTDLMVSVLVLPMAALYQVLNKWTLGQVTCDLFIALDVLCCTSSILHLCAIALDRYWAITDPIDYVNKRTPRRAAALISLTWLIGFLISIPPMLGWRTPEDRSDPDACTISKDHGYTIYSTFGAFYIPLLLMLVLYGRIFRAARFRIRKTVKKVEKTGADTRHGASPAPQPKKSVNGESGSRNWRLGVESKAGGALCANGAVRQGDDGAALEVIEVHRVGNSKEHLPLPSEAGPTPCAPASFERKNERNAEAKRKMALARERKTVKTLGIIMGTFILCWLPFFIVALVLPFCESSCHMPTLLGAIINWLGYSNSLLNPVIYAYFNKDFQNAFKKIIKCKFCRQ
Briefly: 5-HT1A antagonistic activity: antagonism of 5-HT induced inhibition of forskolin induced cAMP accumulation. It is filed as cell-based. Particulars: HeLa cells (HA7) expressing cloned 5-HT1A receptors. The procedure:
The assay was performed as a modification of the method described by Pauwels, P. J. et al, Biochem. Pharmacol. 1993, 45, 375.
(In general: cAMP levels reflect the balance of adenylyl cyclase and phosphodiesterase activity.)

The target of series [2] is T2, 3H-5-HT uptake into whole rat brain synaptosomes (serotonin reuptake) (Rattus norvegicus, UniProt P31652).
T2 construct: from tissue; host or cells: whole rat brain synaptosomes
T2 sequence (P31652 whole entry): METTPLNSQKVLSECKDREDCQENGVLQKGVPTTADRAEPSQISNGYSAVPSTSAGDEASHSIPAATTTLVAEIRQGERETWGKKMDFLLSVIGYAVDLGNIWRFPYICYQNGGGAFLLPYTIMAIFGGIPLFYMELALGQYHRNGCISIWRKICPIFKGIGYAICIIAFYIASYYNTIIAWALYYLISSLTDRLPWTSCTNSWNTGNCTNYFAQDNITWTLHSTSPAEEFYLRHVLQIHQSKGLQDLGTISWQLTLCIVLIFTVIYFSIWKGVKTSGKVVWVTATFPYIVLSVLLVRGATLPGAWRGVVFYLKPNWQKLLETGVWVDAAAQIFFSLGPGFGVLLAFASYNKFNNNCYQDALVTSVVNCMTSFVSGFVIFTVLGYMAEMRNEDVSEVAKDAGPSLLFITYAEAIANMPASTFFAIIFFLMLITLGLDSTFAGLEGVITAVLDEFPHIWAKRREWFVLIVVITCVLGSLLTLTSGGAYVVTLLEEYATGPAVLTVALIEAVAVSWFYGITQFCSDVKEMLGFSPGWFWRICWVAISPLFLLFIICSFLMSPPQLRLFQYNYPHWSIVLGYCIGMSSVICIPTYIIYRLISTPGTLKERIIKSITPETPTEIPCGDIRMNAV
The experiment in a line: Inhibition of 3H-5-HT uptake into rat brain synaptosomes. It is filed as biochemical. On the procedure:
Inhibition of ^3H-5-HT Uptake Into Rat Brain Synaptosomes.
Using this method, the ability of drugs to inhibit the accumulation of ^3H-5-HT into whole rat brain synaptosomes is determined in vitro.

Another series has as its target T3, human 5-HT1A receptors (Homo sapiens, UniProt P08908).
T3 construct: expressed in transfected cells; host or cells: HeLa cells (HA7)
T3 sequence (P08908 1-422): T1 sequence (P08908 1-422)
The experiment in a line: Inhibition of 3H-5-CT binding to human 5-HT1A receptors. On the procedure: Inhibition of ^3H-5-CT Binding to Human 5-HT1A Receptors.
Human 5-HT1A receptors (40 μg of cell homogenate) were incubated for 15 minutes at 37° C. in 50 mM Tris buffer at pH 7.7 in the presence of ^3H-5-CT. Non-specific binding was determined by including 10 μM of metergoline. The reaction was terminated by rapid filtration through Unifilter GF/B filters on a Tomtec Cell Harvester. Filters were counted in a Packard Top Counter.

Where [3] appears, read: 3H-5-HT accumulation into whole rat brain synaptosomes, in vitro, read-out: Inhibition of serotonin reuptake IC50.
[4] abbreviates: cloned human 5-HT1A receptors in HeLa cells (HA7) homogenate, 15 minutes at 37° C., pH 7.7.

Counter-ions that a name gives are not always drawn. Like-named read-outs stand apart in the source and are kept apart here.

Among the data in patent publication US6596722B2, “Piperidine, tetrahydropyridine and piperazine derivatives, their preparation and use” (H. Lundbeck A/S, priority 1999, dated 2003) are melting point and IC50 values, retold here.

Consider `c1cc2c(c(N3CCN(CCc4coc5ccccc45)CC3)c1)OCCO2` (as salt: oxalate) [Compound 3f, 1-[1,4-Benzodioxan-5-yl]-4-[2-(benzofuran-3-yl)ethyl]piperazine], for which the melting point (commonly the temperature of the solid-liquid transition) was in the range of 206 to 208 °C. For `Fc1ccc2c(CCCN3CCN(c4cccc5c4OCCO5)CC3)noc2c1` [Compound 3b, 1-[1,4-Benzodioxan-5-yl]-4-[3-(6-fluorobenzo[1,2]isoxazol-3-yl)-1-propyl]piperazine], the values for the IC50 (in series [1]; in series [2] (setting [3]); on human 5-HT1A receptors (setting [4])) were 74 nM, 240 nM and 7.5 nM, respectively. In the case of `Fc1ccc2occ(CCN3CCN(c4cccc5ccoc45)CC3)c2c1` [Compound 3a, 1-[Benzofuran-7-yl]-4-[2-(5-fluorobenzofuran-3-yl)ethyl]piperazine], the IC50 – broadly, the midpoint of a concentration-inhibition curve – in series [2] (setting [3]) is 170 nM; at human 5-HT1A receptors (setting [4]) it was 29 nM. In turn, `Cc1ccc2c(CCN3CCN(c4cccc5c4OCCO5)CC3)coc2c1` (as salt: oxalate) [Compound 3e, 1-[1,4-Benzodioxan-5-yl]-4-[2-(6-methylbenzofuran-3-yl)ethyl]piperazine] came in with a melting point of 174 to 176 °C. Still for that read-out and setting: with `Clc1cccc2c(CCN3CCN(c4cccc5c4OCCO5)CC3)coc12` (as salt: oxalate) [Compound 3i, 1-[1,4-Benzodioxan-5-yl]-4-[2-(7-chlorobenzofuran-3-yl)ethyl]piperazine] the figure was 190 to 192 °C. Consider `Cc1cccc2occ(CCCN3CCN(c4cccc5c4OCCO5)CC3)c12` [Compound 5a, 1-[1,4-Benzodioxan-5-yl]-4-[3-(4-methylbenzofuran-3-yl)-1-propyl]piperazine], for which the IC50 in series [1] amounted to 390 nM; in series [2] (setting [3]), 15 nM; on human 5-HT1A receptors (setting [4]) it was 2.9 nM.

For `Fc1ccc2occ(CCN3CC=C(c4cccc5ccoc45)CC3)c2c1` (as salt: oxalate) [Compound 3h, 4-[Benzofuran-7-yl]-1-[2-(5-fluorobenzofuran-3-yl)ethyl]-1,2,3,6-tetrahydropyridine], the melting point is 201 to 211 °C. Same read-out and setting: for `Clc1ccc2occ(CCN3CC=C(c4cccc5c4OCC5)CC3)c2c1` (as salt: oxalate) [Compound 3g, 1-[2-(5-chlorobenzofuran-3-yl)ethyl]-4-[2,3-dihydrobenzofuran-7-yl]-1,2,3,6-tetrahydropyridine] the value was 187 to 202 °C. As for `Clc1ccc2occ(CCN3CC=C(c4cccc5c4OCC5)CC3)c2c1` [Compound 3g, 1-[2-(5-chlorobenzofuran-3-yl)ethyl]-4-[2,3-dihydrobenzofuran-7-yl]-1,2,3,6-tetrahydropyridine], the IC50 stood at 160 nM in series [2] (setting [3]) and 24 nM at human 5-HT1A receptors. The compound `Clc1ccc2occ(CCN3CCN(c4cccc5c4OCCO5)CC3)c2c1` (as salt: oxalate) [Compound 3d, 1-[1,4-Benzodioxan-5-yl]-4-[2-(5-chlorobenzofuran-3-yl)ethyl]piperazine] showed a melting point of 206 to 208 °C.

With `Fc1ccc2occ(CCN3CCN(c4cccc5c4OCCO5)CC3)c2c1` [Compound 2a, 1-[1,4-Benzodioxan-5-yl]-4-[2-(5-fluorobenzofuran-3-yl)ethyl]piperazine], the IC50 in series [1] is 100 nM; in series [2] (setting [3]) it was 0.69 nM; at human 5-HT1A receptors (setting [4]), 14 nM. For the compound `c1ccc2c(c1)CCC2CCCCN1CCN(c2cccc3c2OCCO3)CC1` (stereo not drawn) [Compound 1c, 1-[1,4-Benzodioxan-5-yl]-4-[1-(indan-1-yl)-4-butyl]piperazine], the values for the IC50 (in series [2] (setting [3]); on human 5-HT1A receptors (setting [4])) were 130 nM and 2.5 nM, respectively. On to `C(=CC1CCc2ccccc21)CCN1CCN(c2cccc3c2OCCO3)CC1` (stereo not drawn) [Compound 1b, 1-[1,4-Benzodioxan-5-yl]-4-[1-(indan-1-yl)-1-buten-4-yl]piperazine], for which the IC50 on human 5-HT1A receptors (setting [4]) is 6.1 nM.

The compound `Clc1ccc2c(CCN3CCN(c4cccc5c4OCCO5)CC3)n[nH]c2c1` (as salt: oxalate) [Compound 2b, 1-[1,4-Benzodioxan-5-yl]-4-[2-(6-chloroindazol-3-yl)ethyl]piperazine] returned a melting point of 111 to 113 °C. Still for that read-out and setting: with `C(=CC1CCc2ccccc21)CCN1CCN(c2cccc3c2OCCO3)CC1` (stereo not drawn) (as salt: oxalate) [Compound 1b, 1-[1,4-Benzodioxan-5-yl]-4-[1-(indan-1-yl)-1-buten-4-yl]piperazine] the figure was 154 to 157 °C. Consider `Cc1ccc2c(CCN3CCN(c4cccc5c4OCCO5)CC3)coc2c1` [Compound 3e, 1-[1,4-Benzodioxan-5-yl]-4-[2-(6-methylbenzofuran-3-yl)ethyl]piperazine], for which the IC50 in series [1] is 1400 nM; in series [2] (setting [3]) it was 58 nM; at human 5-HT1A receptors (setting [4]), 8.8 nM. As for `c1ccc2c(c1)CCC2CCCCN1CCN(c2cccc3c2OCCO3)CC1` (stereo not drawn) (as salt: oxalate) [Compound 1c, 1-[1,4-Benzodioxan-5-yl]-4-[1-(indan-1-yl)-4-butyl]piperazine], the melting point lay within 154 to 155 °C. For the compound `c1cc2c(c(N3CCN(CCc4coc5ccccc45)CC3)c1)OCCO2` [Compound 3f, 1-[1,4-Benzodioxan-5-yl]-4-[2-(benzofuran-3-yl)ethyl]piperazine], the figures for the IC50 (in series [1]; in series [2]; on human 5-HT1A receptors) were 290 nM, 12 nM and 8.3 nM, respectively. With `Cc1cccc2occ(CCN3CCN(c4cccc5c4OCCO5)CC3)c12` [Compound 3c, 1-[1,4-Benzodioxan-5-yl]-4-[2-(4-methylbenzofuran-3-yl)ethyl]piperazine], the IC50 was determined as 2300 nM in series [1], 11 nM in series [2] (setting [3]) and 19 nM at human 5-HT1A receptors (setting [4]). In the case of `Fc1ccc2occ(CCN3CC=C(c4cccc5ccoc45)CC3)c2c1` [Compound 3h, 4-[Benzofuran-7-yl]-1-[2-(5-fluorobenzofuran-3-yl)ethyl]-1,2,3,6-tetrahydropyridine], the results for the IC50 (in series [2]; at human 5-HT1A receptors) were 43 nM and 11 nM, respectively. `Clc1ccc2occ(CCN3CCN(c4cccc5c4OCCO5)CC3)c2c1` [Compound 3d, 1-[1,4-Benzodioxan-5-yl]-4-[2-(5-chlorobenzofuran-3-yl)ethyl]piperazine]: the IC50 in series [1] was 550 nM; in series [2] (setting [3]), 34 nM; on human 5-HT1A receptors (setting [4]), 18 nM. Turning to `C1=CC(CCCCN2CCN(c3cccc4c3OCCO4)CC2)c2ccccc21` (stereo not drawn) [Compound 1a, 1-[1,4-Benzodioxan-5-yl]-4-[1-(inden-1-yl)-4-butyl]piperazine], the IC50 in series [1] stood at 170 nM; in series [2] (setting [3]), 61 nM; at human 5-HT1A receptors (setting [4]), 1.7 nM. In the case of `Clc1cccc2c(CCN3CCN(c4cccc5c4OCCO5)CC3)coc12` [Compound 3i, 1-[1,4-Benzodioxan-5-yl]-4-[2-(7-chlorobenzofuran-3-yl)ethyl]piperazine], the IC50 in series [1] stood at 1500 nM; in series [2] (setting [3]), 1.5 nM; at human 5-HT1A receptors (setting [4]), 2.1 nM. As to `Cc1ccc(Cl)c2occ(CCCN3CCN(c4cccc5c4OCCO5)CC3)c12` [Compound 4a, 1-[1,4-Benzodioxan-5-yl]-4-[3-(7-chloro-4-methylbenzofuran-3-yl)-1-propyl]piperazine], the IC50 in series [1] is 260 nM; in series [2] (setting [3]), 32 nM. The compound `Cc1cccc2occ(CCN3CCN(c4cccc5c4OCCO5)CC3)c12` (as salt: oxalate) [Compound 3c, 1-[1,4-Benzodioxan-5-yl]-4-[2-(4-methylbenzofuran-3-yl)ethyl]piperazine] showed a melting point of 204 to 206 °C. The compound `Fc1ccc2c(CCCN3CCN(c4cccc5c4OCCO5)CC3)noc2c1` (as salt: fumarate) [Compound 3b, 1-[1,4-Benzodioxan-5-yl]-4-[3-(6-fluorobenzo[1,2]isoxazol-3-yl)-1-propyl]piperazine] registered a melting point of 187 to 189 °C. As for `Clc1ccc2c(CCN3CCN(c4cccc5c4OCCO5)CC3)n[nH]c2c1` [Compound 2b, 1-[1,4-Benzodioxan-5-yl]-4-[2-(6-chloroindazol-3-yl)ethyl]piperazine], the values for the half-inhibitory concentration (IC50) (in series [2] (setting [3]); at human 5-HT1A receptors (setting [4])) were 160 nM and 9.3 nM, respectively.
